Data published in BindingDB's records for patent US10676479 (Novartis AG, 2020).
pIC50: −log10 of the molar value.

Molecular target: Polycomb protein EED (Homo sapiens, UniProt O75530)
Assay: EED-H3K27Me3 Peptide Competition Binding Assay by AlphaScreen
Method: Then 4 μL of detection beads mix was added to the plate and incubate in the dark at the rt for 1 h. The final concentration of donor and acceptor beads was 10 μg/mL for each. […] The data were then fit to a dose response equation using the program Helios (Novartis) to get the IC50 values. […] Compounds were diluted as described in the preceding section, and the assay was performed by adding 12 μL of 10 nM biotin-miniPEG-His6 peptide in the above buffer and incubating for 20 min at rt prior to addition of the beads to 10 μg/mL each. The plates were then incubated for 1 h at rt in dark before being read on EnVison.

Chain of Polycomb protein EED (O75530 whole entry): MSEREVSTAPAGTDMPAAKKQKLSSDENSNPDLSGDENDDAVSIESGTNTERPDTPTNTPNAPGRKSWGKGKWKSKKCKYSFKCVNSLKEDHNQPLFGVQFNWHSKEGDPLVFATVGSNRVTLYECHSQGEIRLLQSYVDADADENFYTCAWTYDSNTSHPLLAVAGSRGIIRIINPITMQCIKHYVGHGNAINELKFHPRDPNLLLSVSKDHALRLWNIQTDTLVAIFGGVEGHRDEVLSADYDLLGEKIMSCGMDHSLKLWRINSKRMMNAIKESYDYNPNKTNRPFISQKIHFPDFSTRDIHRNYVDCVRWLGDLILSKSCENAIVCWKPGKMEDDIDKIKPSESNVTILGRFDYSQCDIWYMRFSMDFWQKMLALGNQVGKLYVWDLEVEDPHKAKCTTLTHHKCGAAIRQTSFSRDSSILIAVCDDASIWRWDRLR

Structure (SMILES)	pIC50
CCN1CCN(c2ccc(-c3cnc(NCc4c(F)ccc5c4CCO5)n4cnc(C#N)c34)cn2)CC1 [US10676479, Example 81]	7.60
Cc1ncccc1-c1cnc(NCc2c(F)ccc3c2CCO3)n2cnc(C(=O)NC3COC3)c12 [US10676479, Example 106]	8.15
CS(=O)(=O)c1ccc(-c2cnc(NCc3c(F)ccc4c3CCO4)n3cnc(-c4ccccc4)c23)cc1 [US10676479, Example 110]	8.09
